Experimental data taken from patent publication US20090324513A1, “Process for Producing Chlorinated Sucrose” (Pharmed Medicare Private Limited, priority 2004, published 2009).
Where “and” joins values, the source holds several entries; their conditions need not be identical. Equal values may be shown once. Each block holds one compound with its values, some of them ahead of it.

Assays:
[1] = Particle size evaluated in Microtrac-X100 equipment; format: physicochemical; settings: for Particle size: other batches, ethyl acetate crystallization
Method: The particle size was evaluated in Microtrac—X100 equipment.

[2] = Solubility test of product batch; format: physicochemical; settings: result against specification: Soluble in ethanol and water. Slightly soluble in ethyl acetate

SMILES: OC[C@H]1O[C@@H](O[C@]2(CCl)O[C@H](CCl)[C@@H](O)[C@@H]2O)[C@H](O)[C@@H](O)[C@H]1Cl [conventional crystallization batch, 1′,6′-Dichloro-1′,6′-Dideoxy-â-D-Fructo-Furanosyl-4-Chloro-4-Deoxy-â-D-Galactopyranoside]
individual crystal particle size at percentage ([1]; 10% of particles): 0.956 microns
individual crystal particle size at percentage ([1]; 20% of particles): 1.541 microns
individual crystal particle size at percentage ([1]; 30% of particles): 2.093 microns
individual crystal particle size at percentage ([1]; 40% of particles): 2.605 microns
individual crystal particle size at percentage ([1]; 50% of particles): 3.274 microns
individual crystal particle size at percentage ([1]; 60% of particles): 4.236 microns
individual crystal particle size at percentage ([1]; 70% of particles): 5.311 microns
individual crystal particle size at percentage ([1]; 80% of particles): 6.615 microns
individual crystal particle size at percentage ([1]; 90% of particles, listed as crystallized product): below 9.185 microns and 9.185 microns
individual crystal particle size at percentage ([1]; 95% of particles): 11.51 microns
Solubility [2]: Complies

SMILES: OC[C@H]1O[C@H](O[C@]2(CCl)O[C@H](CCl)[C@@H](O)[C@@H]2O)[C@H](O)[C@@H](O)[C@H]1Cl [PRO 05]
Particle size ([1]; 90% of particles): 90% ≦ 9.183 microns

SMILES: OC[C@H]1O[C@H](O[C@]2(CCl)O[C@H](CCl)[C@@H](O)[C@@H]2O)[C@H](O)[C@@H](O)[C@H]1Cl [PRO 01]
Particle size ([1]; 90% of particles): 90% ≦ 9.035 microns

Next, values leading:

Particle size ([1]; 90% of particles): 90% ≦ 9.125 microns
SMILES: OC[C@H]1O[C@H](O[C@]2(CCl)O[C@H](CCl)[C@@H](O)[C@@H]2O)[C@H](O)[C@@H](O)[C@H]1Cl [PP 02]

Particle size ([1]; 90% of particles): 90% ≦ 9.165 microns
SMILES: OC[C@H]1O[C@H](O[C@]2(CCl)O[C@H](CCl)[C@@H](O)[C@@H]2O)[C@H](O)[C@@H](O)[C@H]1Cl [PP 03]
